# Assay results as given in ChEMBL document CHEMBL5365410, “SAR of L-ABBA analogs for GGT1 inhibitory activity and L-ABBA's effect on plasma cysteine and GSH species” (Bioorg Med Chem Lett, 2023).
# Calls of active or inactive are those of the source. No cut-off for these calls is given here.
# Assays:
# [1] = biological target: T1, Glutathione hydrolase 1 proenzyme (Homo sapiens, UniProt P19440); test: Inhibition of GGT1 (unknown origin) transpeptidation assessed as inhibition constant using L-GpNA as substrate in presence of Gly-Gly
# T1 sequence (P19440 1-380 limits assumed): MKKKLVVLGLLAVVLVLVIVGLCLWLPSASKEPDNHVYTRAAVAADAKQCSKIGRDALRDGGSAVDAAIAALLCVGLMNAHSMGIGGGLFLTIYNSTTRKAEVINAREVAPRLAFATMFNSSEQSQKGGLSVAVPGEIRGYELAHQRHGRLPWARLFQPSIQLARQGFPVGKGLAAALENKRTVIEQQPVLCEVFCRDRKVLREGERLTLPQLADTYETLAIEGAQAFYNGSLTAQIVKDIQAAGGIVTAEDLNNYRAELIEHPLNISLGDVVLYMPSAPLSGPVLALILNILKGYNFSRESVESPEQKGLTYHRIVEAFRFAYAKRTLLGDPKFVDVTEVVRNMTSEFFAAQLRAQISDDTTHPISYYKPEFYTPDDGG
# T1 sequence (P19440 381-569 limits assumed): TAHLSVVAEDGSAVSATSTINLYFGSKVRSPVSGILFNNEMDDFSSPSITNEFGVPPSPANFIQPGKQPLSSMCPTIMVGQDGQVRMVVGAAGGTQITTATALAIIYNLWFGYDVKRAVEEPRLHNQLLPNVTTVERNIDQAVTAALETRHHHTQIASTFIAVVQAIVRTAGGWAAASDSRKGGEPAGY
# [2] = biological target: T1, Glutathione hydrolase 1 proenzyme; test: Inhibition of GGT1 (unknown origin) transpeptidation at 37500 uM using L-GpNA as substrate in presence of Gly-Gly relative to control
# [3] = biological target: T1, Glutathione hydrolase 1 proenzyme; test: Inhibition of GGT1 (unknown origin) assessed as GSH hydrolysis at […] relative to control
# [4] = Inhibition of bovine GGT1 transpeptidation assessed as inhibition constant; set-up: species or system Bos taurus
# [5] = Inhibition of bovine GGT1 assessed as GSH hydrolysis by measuring inhibition constant; set-up: species or system Bos taurus
# [6] = biological target: T1, Glutathione hydrolase 1 proenzyme; test: Inhibition of GGT1 (unknown origin) assessed as GSH hydrolysis by measuring inhibition constant
# [7] = In-vivo inhibition of GGT1 in mouse assessed as increase in GSH-NEM level in plasma at 0.03 mg measured after 6 hrs; format: functional; conditions: values are per cent of control
# [8] = In-vivo inhibition of GGT1 in mouse assessed as increase in cystine level in plasma measured after 1 hrs; format: functional
# [9] = In-vivo inhibition of GGT1 in mouse assessed as increase in total GSH level in plasma at 0.03 mg measured after 6 hrs; format: functional; conditions: values are per cent of control
# [10] = Volume of distribution at steady in C57BL/6 mouse at 0.3 mg/kg, ip; format: ADME, organism-based; conditions: in vivo
# [11] = In-vivo inhibition of GGT1 in mouse assessed as decrease in total cysteine level in plasma at 0.03 mg measured after 1 hrs; format: functional
# [12] = In-vivo inhibition of GGT1 in mouse assessed as increase in GSSG level in plasma at 0.03 mg measured after 1 hrs; format: functional; conditions: values are per cent of control
# [13] = In-vivo inhibition of GGT1 in mouse assessed as decrease in cystine level in plasma at 0.03 mg measured after 1 hrs; format: functional
# [14] = In-vivo inhibition of GGT1 in mouse assessed as decrease in GSH level in plasma at 0.03 mg measured after 1 hr; format: functional
# [15] = In-vivo inhibition of GGT1 in mouse assessed as increase in GSH level in plasma at 0.03 to 1 mg measured after 1 hrs; format: functional; conditions: dose 0.03-1 mg, values are per cent of control
# [16] = In-vivo inhibition of GGT1 in mouse assessed as decrease in GSH level in plasma at 0.03 mg measured at 24 hrs; format: functional
# Mus musculus [17] = test: In-vivo inhibition of GGT1 in mouse assessed as effect on GSSG level in plasma at 0.2 to 1 mg; format: functional; conditions: dose 0.2-1 mg, time 0.5-48 hrs, TDE = time-dependent effect
# [18] = MRT in C57BL/6 mouse at 0.3 mg/kg, ip; format: ADME, organism-based; conditions: in vivo
# [19] = In-vivo inhibition of GGT1 in mouse assessed as increase in GSSG level in plasma at 0.03 mg measured after 6 hrs; format: functional; conditions: values are per cent of control
# [20] = In-vivo inhibition of GGT1 in mouse assessed as decrease in GSH level in plasma at 0.03 mg measured at 48 hrs; format: functional
# Mus musculus [21] = test: In-vivo inhibition of GGT1 in mouse assessed as decrease in total cysteine level in plasma at 0.03 mg measured after 48 hrs; format: functional
# Mus musculus [22] = test: In-vivo inhibition of GGT1 in mouse assessed as effect on GSH level in plasma at 0.2 to 1 mg; format: functional; conditions: dose 0.2-1 mg, time 0.5-48 hrs, TDE = time-dependent effect
# [23] = In-vivo inhibition of GGT1 in mouse assessed as decrease in GSH level in plasma at 0.03 mg measured at 24 to 48 hrs; format: functional; conditions: time 24-48 hrs
# Mus musculus [24] = test: In-vivo inhibition of GGT1 in mouse assessed as effect on GSH level in plasma measured at 0.5 to 48 hrs; format: functional; conditions: dose 0.2-1 mg, time 0.5-48 hrs
# Mus musculus [25] = test: In-vivo inhibition of GGT1 in mouse assessed as effect on cysteine level in plasma measured at 0.5 to 48 hrs; format: functional; conditions: dose 0.2-1 mg, time 0.5-48 hrs
# [26] = Half life in C57BL/6 mouse at 0.3 mg/kg, ip; format: ADME, organism-based; conditions: in vivo
# Mus musculus [27] = test: In-vivo inhibition of GGT1 in mouse assessed as effect on cysteine level in plasma at 0.2 to 1 mg; format: functional; conditions: dose 0.2-1 mg, time 0.5-48 hrs, TDE = time-dependent effect
# [28] = In-vivo inhibition of GGT1 in mouse assessed as decrease in cysteine level in plasma at 0.03 mg measured after 1 hrs; format: functional
# Mus musculus [29] = test: In-vivo inhibition of GGT1 in mouse assessed as increase in GSH level in plasma at 0.03 mg measured after 48 hrs; format: functional
# [30] = Cmax in C57BL/6 mouse at 0.3 mg/kg, ip; format: ADME, organism-based; set-up: dose 0.3 mg/kg, route ip; conditions: in vivo
# [31] = Clearance in C57BL/6 mouse at 0.3 mg/kg, ip; format: ADME, organism-based; conditions: in vivo
# Mus musculus [32] = test: In-vivo inhibition of GGT1 in mouse assessed as effect on GSSG level in plasma measured at 0.5 to 48 hrs; format: functional; conditions: dose 0.2-1 mg, time 0.5-48 hrs
# [33] = In-vivo inhibition of GGT1 in mouse assessed as increase in cystine-NEM level in plasma measured after 1 hrs; format: functional
# [34] = biological target: T1, Glutathione hydrolase 1 proenzyme; test: Inhibition of GGT1 (unknown origin) transpeptidation at 9100 uM using L-GpNA as substrate in presence of Gly-Gly relative to control
compound,measurement,setting,value
COc1ccc(Cc2nnc(NS(=O)(=O)c3ccccc3)s2)cc1,Ki,[1],68 µM
O=C(O)CCCB(O)O,inhibition,[2],50%
same,inhibition,[3],50%
N[C@H](CCB(O)O)C(=O)O,Ki,[4],0.045 µM
same,Ki,[5],0.077 µM
CCC(N)(CCB(O)O)C(=O)O (racemic),Ki,[1],444 µM
same,Ki,[6],874 µM
CC(N)(CCB(O)O)C(=O)O (racemic),Ki,[1],0.92 µM
same,Ki,[6],2.8 µM
N[C@@H](CCB(O)O)C(=O)O,"response, % of control",[7],500%
same,ID50,[8],0.002 mg
same,"response, % of control",[9],1000%
same,Vdss,[10],20.76 mL
same,inhibition (INH),[11],35%
same,Ki,[4],0.005 µM
same,"response, % of control",[12],1000%
same,inhibition (INH),[13],75%
same,inhibition (INH),[14],85%
same,"response, % of control",[15],250%
same,inhibition (INH),[16],<50%
same,inhibition,Mus musculus [17],Tde
same,MRT,[18],5.42 h
same,"response, % of control",[19],1500%
same,inhibition (INH),[20],89%
same,inhibition,Mus musculus [21],Active
same,inhibition,Mus musculus [22],Tde
same,Ki,[1],0.005 µM
same,inhibition (INH),[23],33%
same,Ki,[5],0.025 µM
same,inhibition,Mus musculus [24],Dose-Dependent Effect
same,inhibition,Mus musculus [25],Dose-Dependent Effect
same,half-life,[26],3.92 h
same,inhibition,Mus musculus [27],Tde
same,inhibition (INH),[28],25%
same,inhibition,Mus musculus [29],Active
same,Cmax,[30],15300 ng/mL
same,CL/F,[31],0.0612 mL/min
same,inhibition,Mus musculus [32],Dose-Dependent Effect
same,ID50,[33],0.22 mg
NCCCB(O)O,inhibition,[34],inactive
same,Ki,[6],> 5000 µM
CCCC(N)(CCB(O)O)C(=O)O (racemic),Ki,[1],198 µM
same,Ki,[6],703 µM
N[C@@H](CCCB(O)O)C(=O)O,Ki,[1],3820 µM
same,Ki,[6],> 4000 µM
